These results are taken from BindingDB's records for doi:10.1016/j.bmcl.2019.126932 (Japan Tobacco, 2020).

A short description of assay [1]: Inhibition of NS5A in Hepatitis C virus subtype 1a replicon infected in human HuH7 cells assessed as reduction in viral replication. Background: In antiviral work, replicon cells carry a viral genome segment that copies itself.
A short description of assay [2]: Inhibition of NS5A in Hepatitis C virus subtype 1b replicon infected in human HuH7 cells assessed as reduction in viral replication.
A short description of assay [3]: Inhibition of NS5A in Hepatitis C virus subtype 2a replicon infected in human HuH7 cells assessed as reduction in viral replication.

Usually EC50 stands for the concentration needed to bring the measured effect to its halfway point. Turning to `CCCC(=O)Nc1ccc(-c2ccc(-c3c[nH]c([C@@H]4CCCN4C(=O)[C@H](NC(=O)c4ccc(NC(=O)OCc5ccccc5)cc4)c4ccccc4)n3)cc2)cc1`, in assay [1], the EC50 amounted to 131 nM.

`CCCC(=O)Nc1ccc(-c2ccc(-c3c[nH]c([C@@H]4CCCN4C(=O)[C@H](NC(=O)CCCc4ccccc4)c4ccccc4)n3)cc2)cc1`: the EC50 in assay [1] was 1300 nM.

As for `COC1CCN(C(=O)Nc2ccc(-c3ccc(-c4c[nH]c([C@@H]5CCCN5C(=O)[C@H](NC(=O)N5CC[C@@H](NC(=O)OCc6ccccc6)C5)c5ccccc5)n4)cc3)cc2)CC1`, the results for the EC50 in assay [1], in assay [2] and in assay [3] were 0.039 nM, 0.028 nM and 0.018 nM, respectively.

For the compound `COC1CCN(C(=O)Nc2ccc(-c3ccc(-c4c[nH]c([C@@H]5CCCN5C(=O)[C@H](NC(=O)CCCNC(=O)OCc5ccccc5)c5ccccc5)n4)cc3)cc2)CC1`, the EC50 turned out to be 2.3 nM in assay [1] and 0.02 nM in assay [2].

Turning to `CCCC(=O)Nc1ccc(-c2ccc(-c3c[nH]c([C@@H]4CCCN4C(=O)[C@H](NC(=O)c4cccc(NC(=O)OCc5ccccc5)c4)c4ccccc4)n3)cc2)cc1`, the 50% effective concentration (EC50) in assay [1] was found to be 44 nM; in assay [2] it was 0.076 nM.

For `CCCC(=O)Nc1ccc(-c2ccc(-c3c[nH]c([C@@H]4CCCN4C(=O)[C@H](NC(=O)N4CC[C@@H](NC(=O)OC)C4)c4ccccc4)n3)cc2)cc1`, the EC50 in assay [1] turned out to be 353 nM; in assay [2], 0.043 nM.

Turning to `CCCC(=O)Nc1ccc(-c2ccc(-c3c[nH]c([C@@H]4CCCN4C(=O)[C@H](NC(=O)c4ccccc4)c4ccccc4)n3)cc2)cc1`, the EC50 in assay [1] was 2400 nM.

Consider `COC1CCC(C(=O)Nc2ccc(-c3ccc(-c4c[nH]c([C@@H]5CCCN5C(=O)[C@H](NC(=O)CCCNC(=O)OCc5ccccc5)c5ccccc5)n4)cc3)cc2)CC1` (stereo partly drawn), for which the EC50 turned out to be 8.1 nM in assay [1] and 0.0049 nM in assay [2].

In the case of `CCCC(=O)Nc1ccc(-c2ccc(-c3c[nH]c([C@@H]4CCCN4C(=O)[C@H](NC(=O)N4CC[C@@H](NC(=O)OCc5ccccc5)C4)c4ccccc4)n3)cc2)cc1`, the values for the EC50 in assay [1] and in assay [2] were 1.1 nM and 0.0048 nM, respectively.

For `O=C(CCCNC(=O)OCc1ccccc1)N[C@@H](C(=O)N1CCC[C@H]1c1nc(-c2ccc(-c3ccc(NC(=O)c4ccccc4)cc3)cc2)c[nH]1)c1ccccc1`, the half-maximal effective concentration (EC50) is 34 nM in assay [1] and 0.025 nM in assay [2].

As for `COC(=O)N[C@@H](C(=O)N1CCC[C@H]1c1ncc(-c2ccc(-c3ccc(-c4cnc([C@@H]5CCCN5C(=O)[C@H](NC(=O)OC)c5ccccc5)[nH]4)cc3)cc2)[nH]1)c1ccccc1`, the figures for the EC50 in assay [1] and in assay [2] were 0.098 nM and 0.014 nM, respectively.

For `COC(=O)N[C@@H](C(=O)N1CCC[C@H]1c1nc(-c2ccc(-c3ccccc3)cc2)c[nH]1)c1ccccc1`, the figures for the EC50 in assay [1] and in assay [2] were 2800 nM and 57 nM, respectively.

Consider `COC(=O)N[C@@H](C(=O)N1CCC[C@H]1c1ncc[nH]1)c1ccccc1`, for which the concentration giving a half-maximal response (EC50) in assay [1] and in assay [2] was more than 10000 nM throughout.

In the case of `CCCC(=O)Nc1ccc(-c2ccc(-c3c[nH]c([C@@H]4CCCN4C(=O)[C@H](NC(=O)CCCNC(=O)OCc4ccccc4)c4ccccc4)n3)cc2)cc1`, the EC50 in assay [1] was found to be 56 nM; in assay [2] it was 0.15 nM.

With `CCCC(=O)Nc1ccc(-c2ccc(-c3c[nH]c([C@@H]4CCCN4C(=O)[C@H](NC(=O)OC)c4ccccc4)n3)cc2)cc1`, the EC50 was 2800 nM in assay [1] and 0.34 nM in assay [2].

Take `CCCC(=O)Nc1ccc(-c2ccc(-c3c[nH]c([C@@H]4CCCN4C(=O)[C@H](NC(=O)CCCCCCc4ccccc4)c4ccccc4)n3)cc2)cc1`: in assay [1], the EC50 is 642 nM.

As for `CCCC(=O)Nc1ccc(-c2ccc(-c3c[nH]c([C@@H]4CCCN4C(=O)[C@H](NC(=O)N4CCCC4)c4ccccc4)n3)cc2)cc1`, the half-maximal effective concentration (EC50) in assay [1] was found to be 353 nM.

As to `CCCC(=O)Nc1ccc(-c2ccc(-c3c[nH]c([C@@H]4CCCN4C(=O)[C@H](NC(=O)N4CCC[C@@H](NC(=O)OCc5ccccc5)C4)c4ccccc4)n3)cc2)cc1`, the results for the EC50 in assay [1] and in assay [2] were 100 nM and 0.023 nM, respectively.

Regarding `CCCC(=O)Nc1ccc(-c2ccc(-c3c[nH]c([C@@H]4CCCN4C(=O)[C@H](NC(=O)c4ccccc4NC(=O)OCc4ccccc4)c4ccccc4)n3)cc2)cc1`, in assay [1], the half-maximal effective concentration (EC50) was 614 nM.

On to `CCCC(=O)Nc1ccc(-c2ccc(-c3c[nH]c([C@@H]4CCCN4C(=O)[C@H](NC(=O)N4CCC[C@H](NC(=O)OCc5ccccc5)C4)c4ccccc4)n3)cc2)cc1`, for which the EC50 in assay [1] is 247 nM.

On to `COCc1ccc(C(=O)Nc2ccc(-c3ccc(-c4c[nH]c([C@@H]5CCCN5C(=O)[C@H](NC(=O)CCCNC(=O)OCc5ccccc5)c5ccccc5)n4)cc3)cc2)cc1`, for which the EC50 stood at 3.5 nM in assay [1] and 0.0042 nM in assay [2].

With `CCCC(=O)Nc1ccc(-c2ccc(-c3c[nH]c([C@@H]4CCCN4C(=O)[C@H](NC(=O)N4CC[C@H](NC(=O)OCc5ccccc5)C4)c4ccccc4)n3)cc2)cc1`, the EC50 was 82 nM in assay [1] and 0.037 nM in assay [2].
